# Results: the supplement of paper PMC10307832
# Columns and labels:
# Experiment in all cases: relative viability (nuclei count vs DMSO), 5 days (fraction); higher = more cells survive
# [1] = system: NCI-H23
# Method in brief: (§1)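 A single step with final 0.05% Triton X-100, 1% formaldehyde and 1 ug/ml Hoechst fixed the cells and stained nuclei 5 days after treatment. Lung cancer cell lines in 1536-well plates had been treated by pin tool the day after seeding with one drug alone or a fixed anchor-drug dose plus five library-drug doses (not always all listed) in √10 steps, and nuclei were counted on 4× images. Relative viability is the ratio of nuclei in treated wells to nuclei in vehicle wells, taken as the median of duplicate plates.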
# [2] = system: NCI-H1666
# Method in brief: as §1
# [3] = system: ChaGo-K-1
# Method in brief: as §1
# [4] = system: LOU-NH91
# Method in brief: as §1
# [5] = system: EMC-BAC-2
# Method in brief: as §1
# [6] = system: H3255
# Method in brief: as §1
# [7] = system: COR-L 105
# Method in brief: as §1
# [8] = system: NCI-H1792
# Method in brief: as §1
# [9] = system: SK-MES-1
# Method in brief: as §1
# [10] = system: NCI-H441
# Method in brief: as §1
# [11] = system: PC-3 [JPC-3]
# Method in brief: as §1
# [12] = system: NCI-H520
# Method in brief: as §1
# [13] = system: LK-2
# Method in brief: as §1
# [14] = system: EKVX
# Method in brief: as §1
# [15] = system: NCI-H1734
# Method in brief: as §1
# [16] = system: A-427
# Method in brief: as §1
# [17] = system: NCI-H1944
# Method in brief: as §1
# [18] = system: HCC-366
# Method in brief: as §1
# [19] = system: NCI-H1975
# Method in brief: as §1
# [20] = system: SW 900
# Method in brief: as §1
# [21] = system: NCI-H1755
# Method in brief: as §1
# [22] = system: NCI-H2170
# Method in brief: as §1
# [23] = system: NCI-H596
# Method in brief: as §1
# [24] = system: NCI-H1563
# Method in brief: as §1
smiles,measurement,setting,value
CC(C)Oc1cc(Nc2nc(N[C@@H](C)c3ccc(F)cn3)ncc2Cl)n[nH]1 [AZ23] + N=C(N)NC(=N)NCCc1ccccc1 [Phenformin] (partner 250 µM),relative viability,[1]; first compound 0.03162 µM,0.89
same,relative viability,[1]; first compound 0.3162 µM,0.783
same,relative viability,[2]; first compound 0.01 µM,0.566
same,relative viability,[2]; first compound 0.03162 µM,0.802
same,relative viability,[2]; first compound 0.3162 µM,0.538
same,relative viability,[3]; first compound 0.01 µM,0.497
same,relative viability,[3]; first compound 0.03162 µM,0.458
same,relative viability,[3]; first compound 0.3162 µM,0.529
same,relative viability,[4]; first compound 0.01 µM,0.713
same,relative viability,[4]; first compound 0.03162 µM,0.755
same,relative viability,[4]; first compound 0.3162 µM,0.728
same,relative viability,[5]; first compound 0.01 µM,0.545
same,relative viability,[5]; first compound 0.03162 µM,0.603
same,relative viability,[5]; first compound 0.3162 µM,0.526
same,relative viability,[6]; first compound 0.01 µM,0.323
same,relative viability,[6]; first compound 0.03162 µM,0.364
same,relative viability,[6]; first compound 0.3162 µM,0.327
same,relative viability,[7]; first compound 0.01 µM,0.456
same,relative viability,[7]; first compound 0.03162 µM,0.577
same,relative viability,[7]; first compound 0.3162 µM,0.508
same,relative viability,[8]; first compound 0.03162 µM,0.397
same,relative viability,[8]; first compound 0.3162 µM,0.239
same,relative viability,[9]; first compound 0.03162 µM,0.743
same,relative viability,[9]; first compound 0.3162 µM,0.743
same,relative viability,[10]; first compound 0.01 µM,0.865
same,relative viability,[10]; first compound 0.03162 µM,0.841
same,relative viability,[10]; first compound 0.3162 µM,0.906
same,relative viability,[11]; first compound 0.01 µM,0.502
same,relative viability,[11]; first compound 0.03162 µM,0.453
same,relative viability,[11]; first compound 0.3162 µM,0.476
same,relative viability,[12]; first compound 0.01 µM,0.508
same,relative viability,[12]; first compound 0.03162 µM,0.643
same,relative viability,[12]; first compound 0.3162 µM,0.23
same,relative viability,[13]; first compound 0.01 µM,0.303
same,relative viability,[13]; first compound 0.03162 µM,0.401
same,relative viability,[13]; first compound 0.3162 µM,0.311
same,relative viability,[14]; first compound 0.01 µM,0.224
same,relative viability,[14]; first compound 0.03162 µM,0.237
same,relative viability,[14]; first compound 0.3162 µM,0.231
same,relative viability,[15]; first compound 0.01 µM,0.335
same,relative viability,[15]; first compound 0.03162 µM,0.451
same,relative viability,[15]; first compound 0.3162 µM,0.439
same,relative viability,[16]; first compound 0.01 µM,0.301
same,relative viability,[16]; first compound 0.03162 µM,0.365
same,relative viability,[16]; first compound 0.3162 µM,0.281
same,relative viability,[17]; first compound 0.01 µM,0.197
same,relative viability,[17]; first compound 0.03162 µM,0.225
same,relative viability,[17]; first compound 0.3162 µM,0.219
same,relative viability,[18]; first compound 0.01 µM,0.614
same,relative viability,[18]; first compound 0.03162 µM,0.641
same,relative viability,[18]; first compound 0.3162 µM,0.658
same,relative viability,[19]; first compound 0.01 µM,0.43
same,relative viability,[19]; first compound 0.03162 µM,0.416
same,relative viability,[19]; first compound 0.3162 µM,0.397
same,relative viability,[20]; first compound 0.01 µM,0.734
same,relative viability,[20]; first compound 0.03162 µM,0.879
same,relative viability,[20]; first compound 0.3162 µM,0.799
same,relative viability,[21]; first compound 0.01 µM,0.689
same,relative viability,[21]; first compound 0.03162 µM,0.651
same,relative viability,[21]; first compound 0.3162 µM,0.673
same,relative viability,[22]; first compound 0.01 µM,0.463
same,relative viability,[22]; first compound 0.03162 µM,0.424
same,relative viability,[22]; first compound 0.3162 µM,0.489
same,relative viability,[23]; first compound 0.01 µM,0.787
same,relative viability,[23]; first compound 0.03162 µM,0.87
same,relative viability,[23]; first compound 0.3162 µM,0.739
same,relative viability,[24]; first compound 0.01 µM,0.708
same,relative viability,[24]; first compound 0.03162 µM,0.653
same,relative viability,[24]; first compound 0.3162 µM,0.707
C[C@@H]1CN(CC(=O)Nc2ccc3c(c2)Cc2cccc(-c4cc(=O)cc(N5CCOCC5)o4)c2S3)C[C@H](C)O1 + Cc1nc(Nc2ncc(C(=O)Nc3c(C)cccc3Cl)s2)cc(N2CCN(CCO)CC2)n1 [Dasatinib] (partner 0.075 µM),relative viability,[1]; first compound 0.04 µM,0.751
same,relative viability,[1]; first compound 0.1265 µM,0.751
same,relative viability,[1]; first compound 0.4 µM,0.711
same,relative viability,[1]; first compound 4 µM,0.735
same,relative viability,[2]; first compound 0.04 µM,0.831
same,relative viability,[2]; first compound 0.1265 µM,0.805
same,relative viability,[2]; first compound 0.4 µM,0.905
same,relative viability,[2]; first compound 4 µM,0.788
same,relative viability,[3]; first compound 0.04 µM,0.603
same,relative viability,[3]; first compound 0.1265 µM,0.617
same,relative viability,[3]; first compound 0.4 µM,0.553
same,relative viability,[3]; first compound 4 µM,0.524
same,relative viability,[4]; first compound 0.04 µM,0.588
same,relative viability,[4]; first compound 0.1265 µM,0.51
same,relative viability,[4]; first compound 0.4 µM,0.476
same,relative viability,[4]; first compound 4 µM,0.492
same,relative viability,[5]; first compound 0.04 µM,0.386
same,relative viability,[5]; first compound 0.1265 µM,0.34
same,relative viability,[5]; first compound 0.4 µM,0.394
same,relative viability,[5]; first compound 4 µM,0.413
same,relative viability,[6]; first compound 0.04 µM,0.432
same,relative viability,[6]; first compound 0.1265 µM,0.347
same,relative viability,[6]; first compound 0.4 µM,0.424
same,relative viability,[6]; first compound 4 µM,0.346
same,relative viability,[7]; first compound 0.04 µM,0.348
same,relative viability,[7]; first compound 0.1265 µM,0.413
same,relative viability,[7]; first compound 0.4 µM,0.383
same,relative viability,[7]; first compound 4 µM,0.336
same,relative viability,[8]; first compound 0.04 µM,0.74
same,relative viability,[8]; first compound 0.1265 µM,0.684
same,relative viability,[8]; first compound 0.4 µM,0.788
same,relative viability,[8]; first compound 4 µM,0.72
same,relative viability,[9]; first compound 0.04 µM,0.444
same,relative viability,[9]; first compound 0.1265 µM,0.353
same,relative viability,[9]; first compound 0.4 µM,0.398
same,relative viability,[9]; first compound 4 µM,0.263
same,relative viability,[10]; first compound 0.04 µM,0.762
same,relative viability,[10]; first compound 0.1265 µM,0.46
same,relative viability,[10]; first compound 0.4 µM,0.62
same,relative viability,[10]; first compound 4 µM,0.538
same,relative viability,[11]; first compound 0.04 µM,0.983
same,relative viability,[11]; first compound 0.1265 µM,1.06
same,relative viability,[11]; first compound 0.4 µM,1.01
same,relative viability,[11]; first compound 4 µM,0.918
same,relative viability,[12]; first compound 0.04 µM,0.216
same,relative viability,[12]; first compound 0.1265 µM,0.227
same,relative viability,[12]; first compound 0.4 µM,0.248
same,relative viability,[12]; first compound 4 µM,0.136
same,relative viability,[13]; first compound 0.1265 µM,0.301
same,relative viability,[13]; first compound 0.4 µM,0.336
same,relative viability,[13]; first compound 4 µM,0.437
same,relative viability,[14]; first compound 0.04 µM,0.576
same,relative viability,[14]; first compound 0.1265 µM,0.568
same,relative viability,[14]; first compound 0.4 µM,0.603
same,relative viability,[14]; first compound 4 µM,0.475
same,relative viability,[15]; first compound 0.04 µM,0.475
same,relative viability,[15]; first compound 0.1265 µM,0.489
same,relative viability,[15]; first compound 0.4 µM,0.5
same,relative viability,[15]; first compound 4 µM,0.517
same,relative viability,[16]; first compound 0.04 µM,0.737
same,relative viability,[16]; first compound 0.1265 µM,0.719
same,relative viability,[16]; first compound 0.4 µM,0.729
same,relative viability,[16]; first compound 4 µM,0.669
same,relative viability,[17]; first compound 0.04 µM,0.21
same,relative viability,[17]; first compound 0.1265 µM,0.236
same,relative viability,[17]; first compound 0.4 µM,0.263
same,relative viability,[17]; first compound 4 µM,0.264
same,relative viability,[18]; first compound 0.04 µM,0.7
same,relative viability,[18]; first compound 0.1265 µM,0.636
same,relative viability,[18]; first compound 0.4 µM,0.427
same,relative viability,[18]; first compound 4 µM,0.529
same,relative viability,[19]; first compound 0.04 µM,0.378
same,relative viability,[19]; first compound 0.1265 µM,0.39
same,relative viability,[19]; first compound 0.4 µM,0.368
same,relative viability,[19]; first compound 4 µM,0.249
same,relative viability,[20]; first compound 0.04 µM,0.509
same,relative viability,[20]; first compound 0.1265 µM,0.801
same,relative viability,[20]; first compound 0.4 µM,0.66
same,relative viability,[20]; first compound 4 µM,0.375
same,relative viability,[21]; first compound 0.04 µM,0.455
same,relative viability,[21]; first compound 0.1265 µM,0.397
same,relative viability,[21]; first compound 0.4 µM,0.427
same,relative viability,[21]; first compound 4 µM,0.37
same,relative viability,[22]; first compound 0.04 µM,0.569
same,relative viability,[22]; first compound 0.1265 µM,0.581
same,relative viability,[22]; first compound 0.4 µM,0.711
same,relative viability,[22]; first compound 4 µM,0.57
same,relative viability,[23]; first compound 0.04 µM,0.568
same,relative viability,[23]; first compound 0.1265 µM,0.512
same,relative viability,[23]; first compound 0.4 µM,0.572
same,relative viability,[23]; first compound 4 µM,0.484
same,relative viability,[24]; first compound 0.04 µM,0.433
same,relative viability,[24]; first compound 0.1265 µM,0.429
same,relative viability,[24]; first compound 0.4 µM,0.445
same,relative viability,[24]; first compound 4 µM,0.433
